Results reported in patent US4482707A, “Aminoglycoside antibiotic saccharocins” (Toyo Jozo Kabushiki Kaisha, priority 1981, dated 1984).
Converted amounts (≈) assume the structure as drawn. Where two headings read alike, the source gives them in different places.

Assays:
[1] = test system: Saccharopolyspora sp. AC 3440; experiment: Resistance on antibiotics of the producing strain; assay type: cell-based
Solubility = assay type: physicochemical
[2] = test system: Streptococcus pyogenes N.Y.5; experiment: MIC by the agar dilution method; assay type: cell-based
From the text: (§1) The minimum inhibitory concentration (MIC) of saccharocin and 3'-oxysaccharocin by the agar dilution method are shown in Table 1.

[3] = test system: Pseudomonas aeruginosa 1946; experiment: MIC by the agar dilution method; assay type: cell-based
From the text: as §1

Pseudomonas putida 1842 = experiment: MIC by the agar dilution method; assay type: cell-based
From the text: as §1

[4] = test system: Pseudomonas aeruginosa ML4561 Rm3164-1; experiment: MIC by the agar dilution method; assay type: cell-based; conditions: ML4561RM31641
From the text: as §1

[5] = test system: Pseudomonas aeruginosa ML4561; experiment: MIC by the agar dilution method; assay type: cell-based
From the text: as §1

[6] = test system: Pseudomonas aeruginosa 2512; experiment: MIC by the agar dilution method; assay type: cell-based
From the text: as §1

[7] = test system: Enterobacter cloacae GN336; experiment: MIC by the agar dilution method; assay type: cell-based
From the text: as §1

[8] = test system: Pseudomonas martfiriae 1850; experiment: MIC by the agar dilution method; assay type: cell-based
From the text: as §1

[9] = test system: Staphylococcus epidermidis ap-al-1; experiment: MIC by the agar dilution method; assay type: cell-based; conditions: APAL1
From the text: as §1

[10] = test system: Klebsiella pneumoniae ATCC 10031; experiment: MIC by the agar dilution method; assay type: cell-based; conditions: ATCC10031
From the text: as §1

Serratia marcescens = experiment: MIC by the agar dilution method; assay type: cell-based
From the text: as §1

Proteus morganii 0239 = experiment: MIC by the agar dilution method; assay type: cell-based; conditions: Morganella morganii
From the text: as §1

[11] = test system: Escherichia coli W3630RGN14; experiment: MIC by the agar dilution method; assay type: cell-based
From the text: as §1

[12] = test system: Staphylococcus aureus MS27; experiment: MIC by the agar dilution method; assay type: cell-based
From the text: as §1

[13] = test system: Staphylococcus aureus 0119; experiment: MIC by the agar dilution method; assay type: cell-based
From the text: as §1

[14] = test system: Pseudomonas aeruginosa ML4561 RP4; experiment: MIC by the agar dilution method; assay type: cell-based; conditions: ML4561RP4
From the text: as §1

Shigella sonnei E33 = experiment: MIC by the agar dilution method; assay type: cell-based
From the text: as §1

[15] = test system: Enterobacter aerogenes 055; experiment: MIC by the agar dilution method; assay type: cell-based; conditions: Klebsiella aerogenes
From the text: as §1

Proteus rettgeri ACR = experiment: MIC by the agar dilution method; assay type: cell-based; conditions: Providencia rettgeri
From the text: as §1

Pseudomonas aeruginosa = experiment: MIC by the agar dilution method; assay type: cell-based; conditions: Pseudomonas aeruginosa (no strain code)
From the text: as §1

[16] = test system: Escherichia coli NIHJ-JC2; experiment: MIC by the agar dilution method; assay type: cell-based; conditions: NIHJJC2
From the text: as §1

[17] = test system: Salmonella enteritidis gaertner; experiment: MIC by the agar dilution method; assay type: cell-based; conditions: Salmonella enterica
From the text: as §1

[18] = test system: Bacillus subtilis ATCC6633; experiment: MIC by the agar dilution method; assay type: cell-based
From the text: as §1

[19] = test system: Citrobacter freundie GN346; experiment: MIC by the agar dilution method; assay type: cell-based
From the text: as §1

[20] = test system: Staphylococcus aureus ATCC 6538P; experiment: MIC by the agar dilution method; assay type: cell-based; conditions: ATCC6538P
From the text: as §1

[21] = test system: Pseudomonas aeruginosa ML4561 Rm3166; experiment: MIC by the agar dilution method; assay type: cell-based; conditions: ML4561RM3166
From the text: as §1

Escherichia coli W3630 = experiment: MIC by the agar dilution method; assay type: cell-based
From the text: as §1

[22] = 336 h, resistance of producing strain AC 3440, 37° C., 14 days, read-out: MIC
[23] = acetone, benzene, ethyl acetate
[24] = resistance of producing strain AC 3440, 37° C., 14 days

CCCC(=O)OC1C(C)OC(OC2C(C)OC(OC3C(CC=O)CC(C)C(O)C=CC=CCC(C)OC(=O)CC(O)C3OC)C(O)C2N(C)C)CC1(C)O (stereo not drawn) [Leucomycin A5]
MIC [1, 22]: > 100 µg/mL

CNC1C(OC2OC(CO)C(O)C(O)C2O)OC2CC(N)C(OC3C(N)CC(N)C(O)C3O)OC2C1O (stereo not drawn) [Saccharocin]
Solubility (Solubility; [23]): insoluble
Solubility (Solubility; water): soluble
MIC [2]: 25 µg/mL (≈ 46.2 µM)
MIC [3]: > 100 µg/mL
MIC (Pseudomonas putida 1842): 25 µg/mL (≈ 46.2 µM)
MIC [4]: 25 µg/mL (≈ 46.2 µM)
MIC [5]: 25 µg/mL (≈ 46.2 µM)
MIC [6]: 50 µg/mL (≈ 92.5 µM)
MIC [7]: 6.3 µg/mL (≈ 11.7 µM)
MIC [8]: > 100 µg/mL
MIC [9]: 6.3 µg/mL (≈ 11.7 µM)
MIC [10]: 3.1 µg/mL (≈ 5.73 µM)
MIC (Serratia marcescens): 6.3 µg/mL (≈ 11.7 µM)
MIC (Proteus morganii 0239): 6.3 µg/mL (≈ 11.7 µM)
MIC [11]: 3.1 µg/mL (≈ 5.73 µM)
MIC [12]: 12.5 µg/mL (≈ 23.1 µM)
MIC [13]: 6.3 µg/mL (≈ 11.7 µM)
MIC [14]: 12.5 µg/mL (≈ 23.1 µM)
MIC (Shigella sonnei E33): 6.3 µg/mL (≈ 11.7 µM)
MIC [15]: 6.3 µg/mL (≈ 11.7 µM)
MIC (Proteus rettgeri ACR): 3.1 µg/mL (≈ 5.73 µM)
MIC (Pseudomonas aeruginosa): 25 µg/mL (≈ 46.2 µM)
MIC [16]: 6.3 µg/mL (≈ 11.7 µM)
MIC [17]: 6.3 µg/mL (≈ 11.7 µM)
MIC [18]: 0.8 µg/mL (≈ 1.48 µM)
MIC [19]: 6.3 µg/mL (≈ 11.7 µM)
MIC [20]: 12.5 µg/mL (≈ 23.1 µM)
MIC [21]: 12.5 µg/mL (≈ 23.1 µM)
MIC (Escherichia coli W3630): 1.6 µg/mL (≈ 2.96 µM)

Neomycin
MIC [1, 24]: 100 µg/mL

Gentamicin
MIC [1, 24]: > 100 µg/mL

NC[C@@H]1O[C@H](O[C@H]2[C@@H](O)[C@H](O[C@@H]3[C@@H](O)[C@H](N)C[C@H](N)[C@H]3O[C@H]3O[C@H](CO)[C@@H](O)[C@H](O)[C@H]3N)O[C@@H]2CO)[C@H](N)[C@@H](O)[C@@H]1O [Paromomycin]
MIC [1, 22]: 50 µg/mL (≈ 81.2 µM)

NC[C@H]1O[C@H](O[C@H]2[C@H](O)[C@@H](O[C@H]3O[C@H](CO)[C@@H](O)[C@H](N)[C@H]3O)[C@H](N)C[C@@H]2N)[C@H](N)C[C@@H]1O [Tobramycin]
MIC [1, 22]: > 100 µg/mL

[H]/N=C(/N)N[C@H]1[C@H](O)[C@@H](O)[C@H](O[C@@H]2O[C@@H](C)[C@](O)(C=O)[C@H]2O[C@@H]2O[C@@H](CO)[C@H](O)[C@@H](O)[C@@H]2NC)[C@@H](N/C(N)=N\[H])[C@@H]1O [Streptomycin]
MIC [1, 22]: 25 µg/mL (≈ 43 µM)

CNC1C(OC2OC(CO)C(O)C(O)C2O)OC2C(O)C(N)C(OC3C(N)CC(N)C(O)C3O)OC2C1O (stereo not drawn) [3'-oxysaccharocin]
Solubility (Solubility; [23]): insoluble
Solubility (Solubility; water): soluble
MIC [2]: 50 µg/mL (≈ 89.8 µM)
MIC [3]: > 50 µg/mL
MIC (Pseudomonas putida 1842): 50 µg/mL (≈ 89.8 µM)
MIC [4]: 50 µg/mL (≈ 89.8 µM)
MIC [5]: 50 µg/mL (≈ 89.8 µM)
MIC [6]: 50 µg/mL (≈ 89.8 µM)
MIC [7]: 12.6 µg/mL (≈ 22.6 µM)
MIC [8]: > 50 µg/mL
MIC [9]: 12.5 µg/mL (≈ 22.5 µM)
MIC [10]: 12.5 µg/mL (≈ 22.5 µM)
MIC (Serratia marcescens): 12.5 µg/mL (≈ 22.5 µM)
MIC (Proteus morganii 0239): 12.5 µg/mL (≈ 22.5 µM)
MIC [11]: 12.5 µg/mL (≈ 22.5 µM)
MIC [12]: 25 µg/mL (≈ 44.9 µM)
MIC [13]: 12.5 µg/mL (≈ 22.5 µM)
MIC [14]: 50 µg/mL (≈ 89.8 µM)
MIC (Shigella sonnei E33): 25 µg/mL (≈ 44.9 µM)
MIC [15]: 12.5 µg/mL (≈ 22.5 µM)
MIC (Proteus rettgeri ACR): 12.5 µg/mL (≈ 22.5 µM)
MIC (Pseudomonas aeruginosa): 50 µg/mL (≈ 89.8 µM)
MIC [16]: 12.5 µg/mL (≈ 22.5 µM)
MIC [17]: 12.5 µg/mL (≈ 22.5 µM)
MIC [18]: 3.1 µg/mL (≈ 5.57 µM)
MIC [19]: 12.5 µg/mL (≈ 22.5 µM)
MIC [20]: 25 µg/mL (≈ 44.9 µM)
MIC [21]: 25 µg/mL (≈ 44.9 µM)
MIC (Escherichia coli W3630): 3.1 µg/mL (≈ 5.57 µM)

NC[C@H]1O[C@H](O[C@H]2[C@H](O)[C@@H](O[C@H]3O[C@H](CO)[C@@H](O)[C@H](N)[C@H]3O)[C@H](N)C[C@@H]2N)[C@H](O)[C@@H](O)[C@@H]1O [Kanamycin]
MIC ([1]; 336 h): > 100 µg/mL

CO[C@H]1/C=C/O[C@@]2(C)Oc3c(C)c(O)c4c(O)c(c(/C=N/N5CCN(C)CC5)c(O)c4c3C2=O)NC(=O)/C(C)=C\C=C\[C@H](C)[C@H](O)[C@@H](C)[C@@H](O)[C@@H](C)[C@H](OC(C)=O)[C@@H]1C [Rifampicin]
MIC ([1]; 336 h): < 12.5 µg/mL
